Measured values from patent publication US7091183B1 (Boston Medical Center Corporation, priority 1996, dated 2006).
“And” between values parts separate entries of the source, which are not always exact repeats. Equal values may be shown once. Read-outs that look alike come from different tables or passages of the source. Blank lines part the entries; values can stand above or below the compound they belong to. Where no end group is shown, it is not given here.

What was measured:
rat GIP receptor [1] = biological target: T1, rat GIP receptor (Rattus norvegicus, UniProt P43219); assay: cAMP-dependent β-galactosidase production in LGIPR2 cells (agonist activity); assay type: cell-based; details: for β-gal level stimulated by peptide alone: FIG. 1B; for stimulation of cAMP-dependent β-galactosidase production (versus GIP (1–42) / above control levels): 10^−8 M peptide, 4 h
T1 construct: expressed in transfected cells; host or cells: L cells (LGIPR2), also carrying a VIP-promoter/lacZ cAMP reporter
T1 sequence (P43219 19-455): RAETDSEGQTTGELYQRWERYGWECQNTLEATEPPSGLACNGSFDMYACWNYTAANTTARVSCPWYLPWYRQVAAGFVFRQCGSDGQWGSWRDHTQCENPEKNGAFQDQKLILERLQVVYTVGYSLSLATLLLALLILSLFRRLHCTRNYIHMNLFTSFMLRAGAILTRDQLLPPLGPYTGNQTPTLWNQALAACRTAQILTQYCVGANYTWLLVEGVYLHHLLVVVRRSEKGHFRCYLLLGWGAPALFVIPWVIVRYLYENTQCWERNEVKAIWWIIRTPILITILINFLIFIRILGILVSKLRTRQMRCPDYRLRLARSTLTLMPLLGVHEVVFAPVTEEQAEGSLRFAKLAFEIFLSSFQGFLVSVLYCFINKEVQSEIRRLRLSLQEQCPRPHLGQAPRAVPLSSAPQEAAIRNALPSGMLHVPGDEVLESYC
Description: LGIPR2 cells are stably transfected with a cAMP-dependent promoter from the VIP gene fused to the bacterial lac Z gene. When intracellular cAMP increases within these cells, lac Z gene transcription is activated, resulting in the accumulation of its product, β-galactosidase. The measurement of β-galactosidase in this system provided a convenient, inexpensive, and nonradioactive method for detecting changes in the levels of intracellular cAMP. […] The medium was then removed and wells rinsed once with phosphate-buffered saline (PBS). The plates were then blotted briefly and frozen overnight at −70° C., and, after the addition of chlorophenol red-β-D-galactopyranoside, accumulated β-galactosidase was detected using a calorimetric assay, as described previously (Usdin, et al., 1993, Endocrinology, 133:2861–2870). […] Natl. Acad. Sci. USA, 90:1992–1996).

fasted anesthetized rats = assay: Intravenous infusion of peptides in fasting anesthetized rats, plasma insulin; assay type: in vivo, rat; details: for plasma insulin level after infusion: 30 min i.v. infusion
GIP receptor [2] = biological target: T2, GIP receptor (Mus musculus, UniProt Q0P543); details: βTC3 cells; cited from earlier work
T2 construct: host or cells: βTC3 cells (endogenous receptor)
T2 sequence (Q0P543 19-460): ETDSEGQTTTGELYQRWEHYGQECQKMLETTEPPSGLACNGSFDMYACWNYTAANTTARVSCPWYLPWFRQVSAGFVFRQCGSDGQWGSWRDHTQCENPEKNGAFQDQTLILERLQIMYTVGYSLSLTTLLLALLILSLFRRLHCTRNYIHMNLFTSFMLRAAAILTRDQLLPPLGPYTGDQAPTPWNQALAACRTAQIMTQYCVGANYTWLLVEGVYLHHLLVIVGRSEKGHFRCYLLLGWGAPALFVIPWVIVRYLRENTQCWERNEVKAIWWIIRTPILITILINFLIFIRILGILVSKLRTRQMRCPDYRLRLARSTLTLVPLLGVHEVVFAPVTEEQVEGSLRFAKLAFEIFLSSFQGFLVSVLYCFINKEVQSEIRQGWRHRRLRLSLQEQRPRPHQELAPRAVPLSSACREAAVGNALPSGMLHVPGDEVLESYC

rat GIP receptor [3] = biological target: T1, rat GIP receptor; assay: Inhibition of GIP (1–42)-stimulated cAMP-dependent β-galactosidase production in LGIPR2 cells; assay type: cell-based; details: 10^−8 M GIP (1–42) plus fragment at 10^−8 M or 10^−6 M, 4 h
Method: LGIPR2 cells are stably transfected with a cAMP-dependent promoter from the VIP gene fused to the bacterial lac Z gene. When intracellular cAMP increases within these cells, lac Z gene transcription is activated, resulting in the accumulation of its product, β-galactosidase. The measurement of β-galactosidase in this system provided a convenient, inexpensive, and nonradioactive method for detecting changes in the levels of intracellular cAMP.
LGIPR2 cells were grown in Dulbecco's Modified Eagle's Medium (DMEM) containing 4.5 g/L of glucose and 10% fetal calf serum. For each assay, 10^5 cells/well were seeded onto 24-well plates. After incubation overnight, peptides were added in various concentrations to the wells in the absence of 3-isobutyl-methylxanthine (IBMX) for 4 h, at which time maximal stimulation of β-galactosidase was determined. The medium was then removed and wells rinsed once with phosphate-buffered saline (PBS). The plates were then blotted briefly and frozen overnight at −70° C., and, after the addition of chlorophenol red-β-D-galactopyranoside, accumulated β-galactosidase was detected using a calorimetric assay, as described previously (Usdin, et al., 1993, Endocrinology, 133:2861–2870).
Values are expressed as the mean±SE of quadruplicate measurements.

rats = details: exendin-treated rats, cited from earlier work
GIP receptor [4] = details: cited from earlier work
[5] = in vivo; cited from earlier work

Compound: CC[C@H](C)[C@H](NC(=O)[C@H](CO)NC(=O)[C@H](Cc1ccc(O)cc1)NC(=O)[C@H](CC(=O)O)NC(=O)[C@H](CO)NC(=O)[C@@H](NC(=O)[C@H](Cc1ccccc1)NC(=O)[C@@H](NC(=O)CNC(=O)[C@H](CCC(=O)O)NC(=O)[C@H](C)NC(=O)[C@@H](N)Cc1ccc(O)cc1)[C@@H](C)O)[C@@H](C)CC)C(=O)N[C@@H](C)C(=O)N[C@@H](CCSC)C(=O)N[C@@H](CC(=O)O)C(=O)N[C@@H](CCCCN)C(=O)N[C@H](C(=O)N[C@@H](CCCNC(=N)N)C(=O)N[C@@H](CCC(N)=O)C(=O)N[C@@H](CCC(N)=O)C(=O)N[C@@H](CC(=O)O)C(=O)N[C@@H](Cc1ccccc1)C(=O)N[C@H](C(=O)N[C@@H](CC(N)=O)C(=O)N[C@@H](Cc1c[nH]c2ccccc12)C(=O)N[C@@H](CC(C)C)C(=O)N[C@@H](CC(C)C)C(=O)N[C@@H](C)C(=O)N[C@@H](CCC(N)=O)C(=O)N[C@@H](CCCCN)C(=O)NCC(=O)N[C@@H](CCCCN)C(=O)N[C@@H](CCCCN)C(=O)N[C@@H](CC(N)=O)C(=O)N[C@@H](CC(=O)O)C(=O)N[C@@H](Cc1c[nH]c2ccccc12)C(=O)N[C@@H](CCCCN)C(=O)N[C@@H](Cc1c[nH]cn1)C(=O)N[C@@H](CC(N)=O)C(=O)N[C@@H](CC(C)C)C(=O)N[C@H](C(=O)N[C@@H](CCC(N)=O)C(=O)O)[C@@H](C)O)C(C)C)[C@@H](C)CC [GIP, glucose-dependent insulinotropic polypeptide]
- β-gal level stimulated by peptide alone (rat GIP receptor [1]): 0.95±0.04 O.D.
- concentration giving maximum effect on β-galactosidase production (rat GIP receptor [1]; at 4 h): 10^−8 M
- plasma insulin level after infusion (fasted anesthetized rats; GIP 0.5 nmol/kg): 43.5±2.7 μIU/ml
- plasma insulin level after infusion (fasted anesthetized rats; GIP 1.0 nmol/kg): 61.6±4.2 μIU/ml
- plasma insulin level after infusion (fasted anesthetized rats; GIP 1.5 nmol/kg): 72.4±3.5 μIU/ml

Compound: CC[C@H](C)[C@H](NC(=O)[C@H](Cc1ccccc1)NC(=O)[C@H](CCC(=O)O)NC(=O)[C@H](CCCCN)NC(=O)[C@H](C)NC(=O)[C@H](C)NC(=O)[C@H](CCC(N)=O)NC(=O)CNC(=O)[C@H](CCC(=O)O)NC(=O)[C@H](CC(C)C)NC(=O)[C@H](Cc1ccc(O)cc1)NC(=O)[C@H](CO)NC(=O)[C@H](CO)NC(=O)[C@@H](NC(=O)[C@H](CC(=O)O)NC(=O)[C@H](CO)NC(=O)[C@@H](NC(=O)[C@H](Cc1ccccc1)NC(=O)[C@@H](NC(=O)CNC(=O)[C@H](CCC(=O)O)NC(=O)[C@H](C)NC(=O)[C@@H](N)Cc1c[nH]cn1)[C@@H](C)O)[C@@H](C)O)C(C)C)C(=O)N[C@@H](C)C(=O)N[C@@H](Cc1c[nH]c2ccccc12)C(=O)N[C@@H](CC(C)C)C(=O)N[C@H](C(=O)N[C@@H](CCCCN)C(=O)NCC(=O)N[C@@H](CCCNC(=N)N)C(N)=O)C(C)C [GLP-1, glucagon like peptide-1 (7–36)]
- plasma insulin level at 30 min (fasted anesthetized rats; GLP-1 0.4 nmol/kg infusion): 50.3±3.7 μIU/ml

Compound: N=C(N)NCCC[C@H](N)C(=O)O [arginine]
- plasma insulin level at 30 min (fasted anesthetized rats; arginine 375 mg/kg infusion): 69.7±5.8 μIU/ml

- stimulation of cAMP-dependent β-galactosidase production (versus GIP (1–42) / above control levels) (rat GIP receptor [1]): nearly equipotent
Compound: GIP (1–30)-NH2 (YAEGTFISDYSIAMDKIRQQDFVNWLLAQK-NH2; listed as Rattus norvegicus)
- binding of GIP (1–42) to the GIP receptor (GIP receptor [2]): competitively inhibited binding

- stimulation of cAMP-dependent β-galactosidase production (versus GIP (1–42) / above control levels) (rat GIP receptor [1]): partial agonist activity
- β-gal level stimulated by peptide alone (rat GIP receptor [1]): 0.39 O.D.
- antagonism of the cAMP stimulatory effect of GIP (1–42) (rat GIP receptor [3]): an antagonist, albeit a weak one
Compound: GIP (10–30)-NH2 (YSIAMDKIRQQDFVNWLLAQK-NH2; listed as Rattus norvegicus)

- stimulation of cAMP-dependent β-galactosidase production (versus GIP (1–42) / above control levels) (rat GIP receptor [1]): did not mimic GIP and none
Compound: GIP (16–30)-NH2 (KIRQQDFVNWLLAQK-NH2; listed as Rattus norvegicus)
- antagonism of the cAMP stimulatory effect of GIP (1–42) (rat GIP receptor [3]): neither did they inhibit GIP-dependent effects

- stimulation of cAMP-dependent β-galactosidase production (versus GIP (1–42) / above control levels) (rat GIP receptor [1]): none
Compound: GIP (21–30)-NH2 (DFVNWLLAQK-NH2)

- stimulation of cAMP-dependent β-galactosidase production (versus GIP (1–42) / above control levels) (rat GIP receptor [1]): none
Compound: GIP (31–44) (GKKNDWKHNLTQRE; listed as Rattus norvegicus)

Compound: exendin (9–39)
- plasma glucose level (rats; increased from 7.5): 8.7 mmol/L
- reduction of postprandial insulin release (rats): 50% and 48%
- reduction of postprandial insulin release (rats; listed as exendin): ~50%
- GIP binding to its receptor (GIP receptor [4]): displaced GIP binding from its receptor
- cAMP generation in response to GIP stimulation (GIP receptor [4]): inhibits cAMP generation
- reduction of insulin release following intraduodenal glucose infusion [5]: 70%
